Results published in patent US20160199343A1, “COMPOUNDS AND FORMULATIONS FOR THE TREATMENT OF WOUNDS” (NITTO DENKO CORPORATION, priority 2013, published 2016).

What was measured:
[1] = system: full-thickness skin wounds; experiment: Mouse full-thickness skin wound model, scar analysis by histology; type: in vivo; details: for reduction in scar index: full thickness excisional wounds in mice, same application formulation, versus control group
Description: The mouse model used here can be considered one of the simplest and standard murine models for investigating scar formation and wound healing.
Mice were weighed and then anaesthetized with 5% isoflurane in air for induction and then administered 2.5-3% of isoflurane in air for the remainder of the procedure. The animals were administered Tramal (Tramadol) intraperitoneally for analgesia at a 0.1 mg/kg dose. Before surgery the back of the mice was shaved and disinfected with isobetadine soap, rinsed with water and then swabbed with iodium alcohol.
The back of the mice was shaved and four full-thickness skin wounds were performed by cutting the folded skin on the back of the mice with a 7.5 mm×3 mm elliptical biopsy punch (Elliptical Excisional Instrument, Acuderm Inc.). The skin on the back was raised and folded at the level of the vertebral column by using the thumb and the index finger. The folded skin was then placed on a wood tongue depressor with the animal laying on one side and two wounds were performed through the folded skin by using an elliptical biopsy punch (Elliptical Excisional Instrument, Acuderm Inc.), resulting in four wounds on the back skin: two on the right of the vertebral column and two on the left (FIG. 9). The epidermis, the dermis and the fat tissue in the wound was carefully removed without touching other tissues. The wounds were then immediately treated with topical application of either the hydrogel or the ointment (glycerol+HEPES buffer) formulation containing the active substance (T1 and T2) or vehicle (Tv) and one wound was (Ts) left untreated (FIG. 9). The position of the wounds was randomised according to a list. The wound site was then covered with OP-Film (Somed International, the Netherlands) (FIG. 9). The borders were then fixed with cyanoacrylate glue (Loctite).
This model is identical to the excisional model above except that the wounds were closed with three sutures.
The treatment was repeated at the day 1, 2, 3 and 4 post-surgery for a total of 5 treatments in the first 5 days of healing. At each time point the mice were briefly anaesthetized with isoflurane and a new dose of ointment was injected through the film onto the wound, after which the animal was left to recover. At day 5 all films were removed.
After 14 days the mice were sacrificed under isoflurane anaesthesia by cervical dislocation to harvest the regenerated tissue. At sacrifice the mice were weighed and a gross necropsy was performed during which the following tissues are harvested:
Skin samples were also taken. The back of the mouse was carefully shaved paying careful attention to not touch the wound area. […]
The extent of scarring was measured in accordance with the procedure set out by Khorasani et al (2011). […]

3T3 mouse fibroblast = experiment: In vitro scratch assay; type: cell-based; details: 3000 μM in culture medium, followed up to 12 hrs post scratching, linear regression
Description: The compounds of Formula (1) and (1a) were also tested by means of an in vitro model of wound healing. An in vitro scratch assay was performed as was described in Nature Protocols by Liang et al., 2007. In short, 3T3 mouse fibroblast were seeded onto a fibronectin coated 6-well plate and the confluent monolayers were scratched with a 200 μl pipette tip to obtain a linear gap in the monolayer. The closure of this monolayer was then followed up to 12 hrs post scratching. In order to evaluate the effect of the compound (isosorbide, isoidide and isomannide) either 30 μM or 3000 μM of the test compound were added to the culture medium. The increased dose was applied as the model cannot be entirely related to the in vivo situation as the closure time of this model is considerably faster as the in vivo wound (<18 hrs vs. weeks, resp.). The basic medium comprised DMEM, FCS 5%, HEPES 20 mM, L-glutamine 4 mM and 1% pen/strep. Hereto either nothing or the aforementioned concentrations of test compounds were added.

[2] = system: infected and other superficial wounds; details: 120 patients, wounds treated with sugar; cited from earlier work
S. aureus = details: cited from earlier work

Row | Compound | reduction in scar index [1] [%] | effect on closure speed (reduction) (3T3 mouse fibroblast) [%] | Scar index compared to Vehicle-treated / control group (statistics) ([1]; 1-way ANOVA with Dunnet's comparison, p<0.05) | Collagen organisation trend ([1]; mouse wounds, upon administration) | curing rate [2] [%] | sugar solution concentration affecting complete in vitro growth of S. aureus (S. aureus) [g/100 g water]
1 | O[C@H]1CO[C@H]2[C@@H]1OC[C@@H]2O [Isoidide, 1,4:3,6-Dianhydro-D-iditol] | 44 | 27 | – | – | – | –
2 | O[C@@H]1CO[C@H]2[C@@H]1OC[C@@H]2O [Isosorbide] | – | 10 | significantly different from Control and Vehicle | increased values | – | –
3 | O[C@@H]1CO[C@H]2[C@@H]1OC[C@H]2O [Isomannide, 1,4:3,6-dianhydro-D-mannitol] | 38 | 23 | – | – | – | –
4 | OC[C@H]1O[C@@](CO)(O[C@H]2O[C@H](CO)[C@@H](O)[C@H](O)[C@H]2O)[C@@H](O)[C@@H]1O [sugar, sucrose] | – | – | – | – | 99.2 | 183
